Results: patent US8232067B2, “Disrupting FCRN-albumin interactions” (Brigham & Women's Hospital, Inc., priority 2009, dated 2012)

Assays:
Balb/c mice = experiment: Mortality assay (1); format: in vivo; conditions: 12 mg of acetaminophen; mice deficient in FcRn compared to wild-type Balb/c mice
Procedure: Wild-type Balb/c mice and Balb/c mice deficient in FcRn were administered 12 mg of acetaminophen. The dose administered is equivalent to 42 g in a 70 kg human (84 tabs of 500 mg extra strength Tylenol™ (acetaminophen)).

[1] = Serum and bile measurements after tail vein infusion (ELISA); format: in vivo; conditions: FcRn deficient mice vs wild-type, 24 hours after infusion
Procedure: Human IgG and rat albumin were administered via the tail vein to wild-type (WT) or FcRn deficient (−/−) mice 24 hours prior to the harvest of serum and bile. For serum and bile measurements, mice were euthanized before blood was removed via the heart and the bile was removed via the gallbladder. Concentration of IgG and albumin were measured by ELISA. Similar results were obtained from bile collected via common bile duct cannulation.
After 24 hours, blood/serum and gallbladder bile were removed as described in Example 1.

Row | Molecule | mortality (Balb/c mice) | levels of rat albumin in the bile [1]
1 | CC(=O)Nc1ccc(O)cc1 [acetaminophen] | decreased mortality | –
2 | rat albumin: Rat serum albumin administered via the tail vein to mice | – | elevated levels
